According to patent US11059810B2, “Pharmaceutically acceptable salt as renal outer medullary potassium channel inhibitor” (Jiangsu Hengrui Medicine Co., Ltd., priority 2016, dated 2021):

Legend:
[1] = Stability of crystal forms spread flat in air under lighting, heating and high humidity (purity by HPLC); format: physicochemical
Protocol: The sample of crystal form I of the compound of formula (I) prepared in Example 2 and the sample of crystal form II prepared in Example 3 were spread flat in the air respectively to test the stability under conditions of lighting (4500 Lux), heating (40° C., 60° C.), and high humidity (RH 75%, RH 90%). Samplings were carried out on Day 5 and Day 10.

[2] = Special stability study of crystal form I (grinding, heating, tableting; XRPD/DSC); format: physicochemical
From the text: Crystal form I of the compound of formula (I) prepared according to the method of Example 2 was ground, heated and tableted.

[3] = Salt formation study (solubility, hygroscopicity); format: physicochemical; conditions: in words
From the text: In a preferred embodiment, the salt can be selected from the group consisting of tartrate, hydrochloride, sulfate, methanesulfonate, phosphate, citrate, maleate, fumarate, malate, benzenesulfonate, p-toluenesulfonate and hydrobromide, and most preferably L-tartrate and malate. The L-tartrate of (R)-5-cyano-N-(1-(2-hydroxy-2-(4-methyl-1-oxo-1,3-dihydroisobenzofuran-5-yl)ethyl) piperidin-4-yl)-4-methoxypicolinamide, i.e. the compound of the following formula (I), can be obtained by reacting (R)-5-cyano-N-(1-(2-hydroxy-2-(4-methyl-1-oxo-1,3-dihydroisobenzofuran-5-yl)ethyl) piperidin-4-yl)-4-methoxypicolinamide with L-tartaric acid. The hydrochloride, sulfate, methanesulfonate, phosphate, citrate, maleate, fumarate, malate, benzenesulfonate, p-toluenesulfonate and hydrobromide of (R)-5-cyano-N-(1-(2-hydroxy-2-(4-methyl-1-oxo-1,3-dihydroisobenzofuran-5-yl)ethyl) piperidin-4-yl)-4-methoxypicolinamide can be prepared by using a similar method. […]

[4] = Pharmacokinetics assay in SD rats after intragastric administration (plasma LC/MS/MS); format: in vivo; conditions: po 5.0 mg/kg; for CL/F: read-out: Cl/F—obs (clearance)
Protocol: SD rats were used as test animals. The drug concentration in plasma at different time points was determined by LC/MS/MS method after intragastrical administration of the crystal form 2 of the malate of the present invention and free form. The pharmacokinetic behavior and property of the crystal form 2 of the malate of the present invention and free form were studied and evaluated in SD rats.
Samples: crystal form 2 of the malate of the present invention and free form (the product of Example 1), prepared according to the methods of Examples 14 and 1.
Test animals: 8 healthy SD rats, half male and half female, were divided in two groups, and purchased from SINO-BRITSH SIPPR/BK LAB. ANIMAL LTD., CO, with certificate No.: SOCK (Shanghai) 2008-0016.
Preparation of the test compounds: the test compounds were added to 0.5% CMC-Na to prepare 0.5 mg/mL homogeneous suspensions for oral administration by ultrasound.
Administration: after an overnight fasting, 8 healthy SD rats, half male and half female, were administered the test compounds intragastrically at an administration volume of 10 mL/kg.
After an overnight fasting, 8 healthy SD rats, half male and half female, were administered the test compounds intragastrically. Blood samples (0.1 mL) were taken by jugular vein puncture before administration and at 0.5, 1, 2, 4, 6, 8, 12, and 24 hours after administration, and heparin sodium was used as an anticoagulant. The blood samples were centrifuged for 10 minutes at 3,500 rpm to separate the blood plasma, which was stored at −20° C. The content of the test compound in the plasma of SD rats after intragastric administration was determined by LC/MS/MS method.

[5] = both sexes, rat, plasma, 0.5% CMC-Na suspension

Compound	purity as detected by HPLC ([1]; 40° C., day 0)	purity as detected by HPLC ([1]; 40° C., day 5)	purity as detected by HPLC ([1]; 40° C., day 10)	purity as detected by HPLC ([1]; 60° C., day 0)	purity as detected by HPLC ([1]; 60° C., day 5)	purity as detected by HPLC ([1]; 60° C., day 10)	purity as detected by HPLC ([1]; Lighting (4500 Lux), day 0)	purity as detected by HPLC ([1]; Lighting (4500 Lux), day 5)	purity as detected by HPLC ([1]; Lighting (4500 Lux), day 10)	purity as detected by HPLC ([1]; RH 75%, day 0)	purity as detected by HPLC ([1]; RH 75%, day 5)	purity as detected by HPLC ([1]; RH 75%, day 10)	purity as detected by HPLC ([1]; RH 90%, day 0)	purity as detected by HPLC ([1]; RH 90%, day 5)	purity as detected by HPLC ([1]; RH 90%, day 10)	CL/F [4, 5]	AUClast (area under curve 0→t) ([4]; 0.5% CMC-Na suspension)	further results
COc1cc(C(=O)NC2CCN(C[C@H](O)c3ccc4c(c3C)COC4=O)CC2)ncc1C#N.O=C(O)C(O)C(O)C(=O)O [Crystal form I, L-tartrate of (R)-5-cyano-N-(1-(2-hydroxy-2-(4-methyl-1-oxo-1,3-dihydroisobenzofuran-5-yl)ethyl)piperidin-4-yl)-4-methoxypicolinamide]	99.67%	99.52%	99.45%	99.67%	99.55%	99.39%	99.67%	99.54%	99.34%	99.67%	99.53%	99.39%	99.67%	99.59%	99.43%	–	–	stability under conditions of lighting, high temperature and high humidity ([1]; in words): stable; stability compared with crystal form II ([1]; spread flat in air, lighting, high temperature and high humidity, in words): significantly better; DSC peak after treatment ([2]; Grinding treatment for 10 minutes in a mortar under nitrogen): 214.17 °C; DSC peak after treatment ([2]; Heating treatment for 3 hours at 80° C.): 214.40 °C; DSC peak after treatment ([2]; Tableting treatment): 214.44 °C; stability of the crystal form ([2]; grinding, heating / pressure (tableting), in words): stable
COc1cc(C(=O)NC2CCN(C[C@H](O)c3ccc4c(c3C)COC4=O)CC2)ncc1C#N [sulfate, (R)-5-cyano-N-(1-(2-hydroxy-2-(4-methyl-1-oxo-1,3-dihydroisobenzofuran-5-yl)ethyl)piperidin-4-yl)-4-methoxypicolinamide]	–	–	–	–	–	–	–	–	–	–	–	–	–	–	–	–	–	hygroscopicity ([3]; salt formation study): obviously hygroscopic
COc1cc(C(=O)NC2CCN(C[C@H](O)c3ccc4c(c3C)COC4=O)CC2)ncc1C#N.O=C(O)C(O)C(O)C(=O)O [Crystal form II, L-tartrate of (R)-5-cyano-N-(1-(2-hydroxy-2-(4-methyl-1-oxo-1,3-dihydroisobenzofuran-5-yl)ethyl)piperidin-4-yl)-4-methoxypicolinamide]	99.47%	99.38%	99.15%	99.47%	99.22%	98.87%	99.47%	99.23%	98.62%	99.47%	99.30%	99.10%	99.47%	99.30%	99.10%	–	–	–
COc1cc(C(=O)NC2CCN(C[C@H](O)c3ccc4c(c3C)COC4=O)CC2)ncc1C#N [Free form, (R)-5-cyano-N-(1-(2-hydroxy-2-(4-methyl-1-oxo-1,3-dihydroisobenzofuran-5-yl)ethyl)piperidin-4-yl)-4-methoxypicolinamide]	–	–	–	–	–	–	–	–	–	–	–	–	–	–	–	9.82 mL/min/kg	9283 ng·h/mL	solubility [3]: low
COc1cc(C(=O)NC2CCN(C[C@H](O)c3ccc4c(c3C)COC4=O)CC2)ncc1C#N.O=C(O)CC(O)C(=O)O [Crystal form 2 of the malate, (R)-5-cyano-N-(1-(2-hydroxy-2-(4-methyl-1-oxo-1,3-dihydroisobenzofuran-5-yl)ethyl)piperidin-4-yl)-4-methoxypicolinamide]	–	–	–	–	–	–	–	–	–	–	–	–	–	–	–	6.87 mL/min/kg	13365 ng·h/mL	half-life ([4]; both sexes, rat, plasma, 0.5% CMC-Na suspension, read-out: T1/2 (half-life) (converted)): 5.24 h; Vd/F ([4]; both sexes, rat, plasma, 0.5% CMC-Na suspension, read-out: Vz/F—obs (apparent distribution volume)): 3.09 L/kg; clearance compared to the free form ([4]; in words): lower; exposure dose compared to the free form ([4]; in words): higher; half-life compared to the free form ([4]; in words): longer
